Data on nine compounds can be found in ChEMBL document CHEMBL3046439, “Spectroscopic characterization of novel d-amino acid-Schiff bases and their Cr(III) and Ni(II) complexes as antimicrobial agents” (2013).

In assay [1] the test system is Staphylococcus epidermidis. Briefly: Antimicrobial activity against Staphylococcus epidermidis assessed as diameter of growth inhibition zone at 0.25 ug/ml after 24 hr by well diffusion method. Format: functional. The settings on record: read-out: DIZ. (In general: Agar diffusion results depend on both activity and mobility in agar.)
Assay [2] concerns Shigella dysenteriae. The assay is described as follows: Antimicrobial activity against Shigella dysenteriae type 10 NCTC 9351 assessed as diameter of growth inhibition zone at 0.25 ug/ml after 24 hr by well diffusion method. Format: functional. The settings on record: type 10 NCTC 9351, 24 h, read-out: DIZ.
For assay [3], the system named is Listeria monocytogenes. Briefly: Antimicrobial activity against Listeria monocytogenes ATCC 19115 assessed as diameter of growth inhibition zone at 0.25 ug/ml after 24 hr by well-diffusion method. Type of assay: functional. The settings on record: ATCC 19115, 24 h, read-out: DIZ.
Assay [4] deals with Salmonella typhi. Briefly: Antimicrobial activity against Salmonella enterica subsp. enterica serovar Typhi H NCTC 901.8394 assessed as diameter of growth inhibition zone at 0.25 ug/ml after 24 hr by well-diffusion method. Type of assay: functional. The settings on record: H NCTC 901.8394, 24 h, read-out: DIZ.
The test system of assay [5] is Staphylococcus aureus. The assay is described as follows: Antimicrobial activity against Staphylococcus aureus ATCC 25923 assessed as diameter of growth inhibition zone at 0.25 ug/ml after 24 hr by well-diffusion method. Format: functional. The settings on record: ATCC 25923, 24 h, read-out: DIZ.
Assay [6] deals with Candida albicans. The assay is described as follows: Antimicrobial activity against Candida albicans Y-1200-NIH assessed as diameter of growth inhibition zone at 0.25 ug/ml after 24 hr by well-diffusion method. The settings on record: read-out: DIZ. Format: functional.
Assay [7] deals with Micrococcus luteus. The assay is described as follows: Antimicrobial activity against Micrococcus luteus ATCC 9341 assessed as diameter of growth inhibition zone at 0.25 ug/ml after 24 hr by well-diffusion method. Type of assay: functional. The settings on record: ATCC 9341, 24 h, read-out: DIZ.
Assay [8] has as its system Brucella abortus. The assay is described as follows: Antimicrobial activity against Brucella abortus (A.99, UK-1995) RSKK03026 assessed as diameter of growth inhibition zone at 0.25 ug/ml after 24 hr by well-diffusion method. Format: functional. The settings on record: (A.99, UK-1995) RSKK03026, 24 h, read-out: DIZ.
The subject of assay [9] is Escherichia coli. The assay is described as follows: Antimicrobial activity against Escherichia coli ATCC 1280 assessed as diameter of growth inhibition zone at 0.25 ug/ml after 24 hr by well-diffusion method. Type of assay: functional. The settings on record: ATCC 1280, 24 h, read-out: DIZ.
The test system of assay [10] is Escherichia coli. Briefly: Antimicrobial activity against Escherichia coli ATCC 1280 assessed as diameter of growth inhibition zone at 30 ug after 24 hr by well-diffusion method. Type of assay: functional. The settings on record: ATCC 1280, 24 h, read-out: DIZ.
In assay [11] the test system is Listeria monocytogenes. The assay is described as follows: Antimicrobial activity against Listeria monocytogenes ATCC 19115 assessed as diameter of growth inhibition zone at 30 ug after 24 hr by well-diffusion method. Format: functional. The settings on record: ATCC 19115, 24 h, read-out: DIZ.
Assay [12] deals with Staphylococcus aureus. The assay is described as follows: Antimicrobial activity against Staphylococcus aureus ATCC 25923 assessed as diameter of growth inhibition zone at 30 ug after 24 hr by well-diffusion method. Type of assay: functional. The settings on record: ATCC 25923, 24 h, read-out: DIZ.
The test system of assay [13] is Salmonella typhi. The assay is described as follows: Antimicrobial activity against Salmonella enterica subsp. enterica serovar Typhi H NCTC 901.8394 assessed as diameter of growth inhibition zone at 30 ug after 24 hr by well-diffusion method. Format: functional. The settings on record: H NCTC 901.8394, 24 h, read-out: DIZ.
Assay [14] relates to Salmonella typhi. Briefly: Antimicrobial activity against Salmonella enterica subsp. enterica serovar Typhi H NCTC 901.8394 assessed as diameter of growth inhibition zone at 10 ug after 24 hr by well-diffusion method. Type of assay: functional. The settings on record: H NCTC 901.8394, 24 h, read-out: DIZ.
The subject of assay [15] is Staphylococcus aureus. The assay is described as follows: Antimicrobial activity against Staphylococcus aureus ATCC 25923 assessed as diameter of growth inhibition zone at 10 ug after 24 hr by well-diffusion method. Type of assay: functional. The settings on record: ATCC 25923, 24 h, read-out: DIZ.
Assay [16] concerns Escherichia coli. The assay is described as follows: Antimicrobial activity against Escherichia coli ATCC 1280 assessed as diameter of growth inhibition zone at 10 ug after 24 hr by well-diffusion method. Type of assay: functional. The settings on record: ATCC 1280, 24 h, read-out: DIZ.
The subject of assay [17] is Listeria monocytogenes. Briefly: Antimicrobial activity against Listeria monocytogenes ATCC 19115 assessed as diameter of growth inhibition zone at 10 ug after 24 hr by well-diffusion method. Type of assay: functional. The settings on record: ATCC 19115, 24 h, read-out: DIZ.
The subject of assay [18] is Brucella abortus. Briefly: Antimicrobial activity against Brucella abortus (A.99, UK-1995) RSKK03026 assessed as diameter of growth inhibition zone at 30 ug after 24 hr by well-diffusion method. Type of assay: functional. The settings on record: (A.99, UK-1995) RSKK03026, 24 h, read-out: DIZ.
Assay [19] concerns Salmonella typhi. The assay is described as follows: Antimicrobial activity against Salmonella enterica subsp. enterica serovar Typhi H NCTC 901.8394 assessed as diameter of growth inhibition zone at 25 ug after 24 hr by well-diffusion method. Type of assay: functional. The settings on record: H NCTC 901.8394, 24 h, read-out: DIZ.
The subject of assay [20] is Staphylococcus aureus. The assay is described as follows: Antimicrobial activity against Staphylococcus aureus ATCC 25923 assessed as diameter of growth inhibition zone at 25 ug after 24 hr by well-diffusion method. Format: functional. The settings on record: ATCC 25923, 24 h, read-out: DIZ.
In assay [21] the test system is Escherichia coli. The assay is described as follows: microbe, parasite or virus in culture. The settings on record: ATCC 1280, 24 h, read-out: DIZ.
Assay [22] relates to Listeria monocytogenes. Briefly: Antimicrobial activity against Listeria monocytogenes ATCC 19115 assessed as diameter of growth inhibition zone at 25 ug after 24 hr by well-diffusion method. The settings on record: ATCC 19115, 24 h, read-out: DIZ. Type of assay: functional.

On to `C[C@@H](/N=C/c1cc(F)cc(Cl)c1O)C(=O)O`, for which the zone of inhibition at 0.25 µg/mL in [1] worked out at 12 mm; in assay [2], 11.5 mm; in assay [3], 12.5 mm; in assay [4] it was 11.5 mm; in [5], 16 mm; in assay [6], 15 mm. In addition, the zone of inhibition at 0.25 µg/mL stood at 23.5 mm in [7], 17.5 mm in assay [8] and 15.5 mm in assay [9].

On to `O=C(O)C/N=C/c1cc(F)cc(Cl)c1O`, for which the zone of inhibition at 0.25 µg/mL in assay [1] worked out at 12.5 mm; in assay [2] it was 18 mm; in assay [3], 10 mm; in assay [4] it was 18 mm; in [5], 18.5 mm; in assay [6], 15.5 mm. Also, the zone of inhibition at 0.25 µg/mL in assay [7] turned out to be 26.5 mm; in [8] it was 15 mm; in assay [9], 16 mm.

As for `C[C@@H](/N=C/c1cc(F)ccc1O)C(=O)O`, the zone of inhibition at 0.25 µg/mL amounted to 5 mm in assay [1]; 6.5 mm in assay [3]; 6 mm in assay [5]; 12.5 mm in [6]; 14 mm in assay [7]; 10.5 mm in assay [8]. Besides, in assay [9], the zone of inhibition at 0.25 µg/mL is 10 mm.

With `O=C(O)C/N=C/c1cc(F)ccc1O`, the zone of inhibition at 0.25 µg/mL was 6 mm in assay [1]; 11 mm in assay [2]; 10 mm in assay [3]; 15 mm in [4]; 7 mm in assay [5]; 10 mm in assay [6]. For the same compound, the figures for the zone of inhibition at 0.25 µg/mL in assay [7], in assay [8] and in assay [9] were 15 mm, 11.5 mm and 13 mm, respectively.

As for `CC1(C)S[C@@H]2[C@H](NC(=O)[C@H](N)c3ccc(O)cc3)C(=O)N2[C@H]1C(=O)O` [AMOXICILLIN], the zone of inhibition at 30 µg/disc was determined as 14 mm in assay [10], 22 mm in [11], 30 mm in assay [12] and 19 mm in assay [13].

Consider `CC1(C)S[C@@H]2[C@H](NC(=O)[C@H](N)c3ccccc3)C(=O)N2[C@H]1C(=O)O` [AMPICILLIN], for which the zone of inhibition at 10 µg/disc in assay [14] was 11 mm; in assay [15], 30 mm; in [16] it was 10 mm; in assay [17] it was 16 mm.

On to `NC[C@H]1O[C@H](O[C@H]2[C@H](O)[C@@H](O[C@H]3O[C@H](CO)[C@@H](O)[C@H](N)[C@H]3O)[C@H](N)C[C@@H]2N)[C@H](O)[C@@H](O)[C@@H]1O` [KANAMYCIN], for which the zone of inhibition at 30 µg/disc in assay [10] was 25 mm; in assay [11], 15 mm; in assay [12], 25 mm; in [13], 20 mm.

For `CC1(C)[C@H](C(=O)O)N2C(=O)C[C@H]2S1(=O)=O` [SULBACTAM], the zone of inhibition at 30 µg/disc in assay [18] is 12 mm.

As to `Cc1cc(NS(=O)(=O)c2ccc(N)cc2)no1` [SULFAMETHOXAZOLE], the zone of inhibition at 25 µg/disc in [19] was determined as 17 mm; in assay [20] it was 24 mm; in assay [21] it was 18 mm; in assay [22], 11 mm.
